From US20150104525A1, “METHOD OF DECREASING FEED CONVERSION RATIO IN FOWL” (Reoxcyn Discoveries Group, Inc., priority 2013, published 2015) come the findings set out here.

The subject of the assay is NRF2. Briefly: Western Blot validation of NRF2 nuclear accumulation and extra-nuclear protein phosphorylation. Format: cell-based, human. The conditions noted are these: HMVEC-L. As for the experimental part: 8. A Western Blot analysis was done on extra-nuclear and intra-nuclear fractions, separated by differential centrifugation, of serum starved HMVEC-L cell cultures exposed to <1% of a composition of the invention compared with a positive hydrogen peroxide control to determine phosphorylation events (oxidant action) in the extra-nuclear fraction and NRF2 (antioxidant transcription) in the intra-nuclear fraction at 0, 30, 60, 90 and 120 min intervals.
Experimental Methods for Western Blot Validation of NRF2 Nuclear Accumulation: HMVEC-L were treated with 1% of a composition of the invention, nuclear extracts were separated through centrifugal differentiation from the extra-nuclear cytosol at 30, 60 and 120 min and subjected to Western Blot analysis for NRF2. In the Western blot experiment the extra-nuclear fraction was probed for phosphorylated proteins using a combination of anti-phospho serine, threonine and tyrosine antibodies. Virtually all cellular processes are regulated by posttranslational modifications and protein phosphorylation is a prevalent mechanism. […]

As to `OO` [H2O2, Hydrogen peroxide], the “nuclear NRF2 levels” value (H2O2 positive control, 30 min) is reported as “did not increase nuclear NRF2 levels”. Moreover, the “phosphorylation of extra-nuclear protein” value (H2O2 treatment) is “marked increase in the phosphorylation”.
